In US5086047A, “Novel steroids” (Roussel Uclaf, Department des Brevets, priority 1989, dated 1992):
Like-named read-outs stand apart in the source and are kept apart here.

Experiments:
[1] = molecular target: T1, aromatase (cytochrome P450 aromatase) (Homo sapiens, UniProt P11511); assay: Aromatase inhibition in vitro, human placental microsomes, tritiated water release from 1β,2β-(H^3)-Androstenedione; format: biochemical
T1 construct: This supernatant was then subjected to an ultra-centrifugation stage (90 minutes, 150,000 g) to obtain the microsomal deposit; from tissue; host or cells: human placenta, microsomal fraction
T1 sequence (P11511 1-503): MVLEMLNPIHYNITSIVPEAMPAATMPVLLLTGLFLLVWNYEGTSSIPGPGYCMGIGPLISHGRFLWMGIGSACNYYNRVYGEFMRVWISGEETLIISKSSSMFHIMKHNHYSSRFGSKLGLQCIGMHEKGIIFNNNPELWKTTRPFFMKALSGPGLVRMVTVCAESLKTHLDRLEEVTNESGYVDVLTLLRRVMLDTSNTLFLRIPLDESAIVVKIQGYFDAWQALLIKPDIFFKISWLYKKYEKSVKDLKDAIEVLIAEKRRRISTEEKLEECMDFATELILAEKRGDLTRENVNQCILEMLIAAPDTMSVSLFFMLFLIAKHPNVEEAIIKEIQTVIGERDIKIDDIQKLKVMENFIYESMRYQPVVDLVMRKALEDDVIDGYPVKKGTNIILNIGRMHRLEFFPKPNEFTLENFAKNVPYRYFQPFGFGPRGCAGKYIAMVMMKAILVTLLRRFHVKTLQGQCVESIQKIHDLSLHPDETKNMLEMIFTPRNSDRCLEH
Procedure: Inhibition dependent on the concentration (measurement of the IC50 =concentration of the inhibitor necessary to reduce the enzymatic activity by 50%).
Human placentas were used which were washed one hour at most after delivery, perfused with physiological serum (5 liters) via the umbilical vein and then deep-frozen at -40° C.
The placentas were thawed at 4° C. and then homogenized (1:3) in a 10 mM phosphate buffer, pH=7.0 containing 100 millimoles of potassium chloride (KCl), 10 millimoles of dithiothreitol (DTT), 10 millimoles of ethylenediamine-tetraacetic acid (EDTA), 40 millimoles of nicotinamide and 250 millimoles of sucrose. The homogenates were then subjected to different phases of centrifugation until the "9000 g" supernatant was obtained (corresponding to cytosol and to endoplasmic reticulum). This supernatant was then subjected to an ultra-centrifugation stage (90 minutes, 150,000 g) to obtain the microsomal deposit. The microsomes were then resuspended in a 50 mM phosphate buffer, pH=7.4, containing 100 millimoles KCl, 1 millimole EDTA, 1 millimole DTT and glycerol (10%). The microsomal suspension was aliquoted and the fractions deep-frozen at the temperature of liquid nitrogen. The concentration of proteins in the microsomal suspension was determined by the BRADFORD method (BRADFORD., Anal. Biochem., Vol. 72, (1976) 248).
To 960 microliters of phosphate buffer (50 millimoles, pH=7.2) 2.5 millimoles glucose-6-phosphate, and containing 0.16 international units of glucose-6-phosphate dehydrogenase (G-6-PDH), the following were added in this order:
1) -10 microliters of inhibitor solubilized in dimethyl-sulfoxide (DMSO) to give final concentrations from 10^-5 M to 10^-10 M.
2) -10 microliters of substrate which was 500 nM Androstenedione solubilized in ethanol and containing 1β,- 2β-(H^3)-Androstenedione in a known isotopic dilution (approx. 200,000 disintegrations per minute).
3) 10 microliters of microsomal suspension equivalent to 25 micrograms of proteins per test.
The enzymatic reaction was then very rapidly initiated by the addition of 10 microliters of reduced nicotinamide adenine dinucleotide phosphate (NADPH) solubilized in water. After stirring, each test was incubated at 37° C. for 10 minutes. The reaction was then stopped by the addition of chloroform (4 ml).
After vigorous stirring of the tubes, they were decanted and centrifuged at 4° C. for 10 minutes at a speed of 3000 r.p.m. (rotations per minute), that is 600 X g. After centrifuging, and for each tube, 100 microliters of supernatant was removed and counted in the presence of a scintillating liquid. This method was derived from the procedures described by Reed et al, (J. Biol. Chem., Vol. 251, (1976), p. 1625) and Thompson et al, (J. Biol. Chem., Vol. 249, (1974), p. 5364). The enzymatic activity (aromatase) was proportional to the percentage of tritium salted out in the form of tritiated water (H^3 20) in the course of the reaction. The inhibition obtained for each concentration of each inhibiting product of the invention was calculated as a percentage of the controls (arbitrary 100%, obtained in the absence of any inhibitor). The CI50 was equal to the concentration of inhibitor necessary to decrease the enzymatic activity by 50% and the values of the CI50 's obtained for the inhibiting products of the invention are as follows: […]

seric estradiol = assay: Amount of estradiol circulating in rats induced with P.M.S.G.; format: in vivo, rat; settings: female rats, PMSG 100 I.U., ** p<0.01
Procedure: I-AMOUNT OF ESTRADIOL CIRCULATING IN RATS INDUCED WITH P.M.S.G.
(Pregnant Mare Serum Gonadotrophine)
Female rats weighing 150 g were induced by an injection of P.M.S.G. (100 I.U./rat/sc). After 90 hours, the animals were treated with the product under test (sc or po) and a blood sample was taken before and after treatment to measure the amount of seric estradiol.
DO, -90 h: injection of 100 I.U. of PMSG/rat.
DO, 0 h: sample of blood from […] then treatment with the product under test.
DO, +2 h: sample of blood.
DO, +6 h: killing of animals and collection of blood.
After coagulation and centrifugation of the blood, the serum was recovered which was dosed with estradiol (E2) by means of an RIA dosage kit (Baxter ER155). The results were expressed as a percentage variation relative to the amount of estradiol at time 0 (each animal is its own control). The statistical test used is the Mann-Whitney U-test (*:p<0.05; **:p<0.01).

[2] = human placental microsomes, Androstenedione 500 nM, 37° C., 10 minutes, read-out: CI50 (concentration of inhibitor necessary to decrease the enzymatic activity by 50%)
[3] = Parenterally (so in the source), 5 mg/kg

CSCC[C@]12CC[C@H](O)C=C1CC[C@@H]1C2=CC[C@]2(C)[C@@H](O)CC[C@@H]12 [26 (3 beta OH), 10β-[2-(methylthio)-ethyl]-Δ^4,9(11) estradien-3β,17β-diol]
IC50 [1, 2]: 165 nM
percentage variation relative to the amount of estradiol at time 0, +2 h (seric estradiol; [3]): -63 percentage variation
percentage variation relative to the amount of estradiol at time 0, +6 h (seric estradiol; [3]): -64 percentage variation

CSCC[C@]12CCC(=O)C=C1CC[C@@H]1C2=CC[C@]2(C)C(=O)CC[C@@H]12 [Example 1, 10β-[2-(methylthio)-ethyl]-Δ^4,9(11) -estradiene-3,17-dione]
IC50 [1]: 20 nM
percentage variation relative to the amount of estradiol at time 0, +2 h (seric estradiol; [3]): -51 percentage variation
percentage variation relative to the amount of estradiol at time 0, +6 h (seric estradiol; [3]): -51 percentage variation
percentage variation relative to the amount of estradiol at time 0, +2 h (seric estradiol; Subcutaneously, 1 mg/kg): -55 percentage variation
percentage variation relative to the amount of estradiol at time 0, +6 h (seric estradiol; Subcutaneously, 1 mg/kg): -68 percentage variation

CCSCC[C@]12CCC(=O)C=C1CC[C@@H]1C2=CC[C@]2(C)C(=O)CC[C@@H]12 [Example 2]
IC50 [1, 2]: 870 nM

CSCC[C@]12CCC(=O)C=C1CC[C@@H]1C2=CC[C@]2(C)[C@@H](O)CC[C@@H]12 [Example 13, 10β-[2-(methylthio)-ethyl]-Δ^4,9(11) -estradien-17-ol-3-one]
IC50 [1, 2]: 50 nM
percentage variation relative to the amount of estradiol at time 0, +2 h (seric estradiol; [3]): -70 percentage variation
percentage variation relative to the amount of estradiol at time 0, +6 h (seric estradiol; [3]): -53 percentage variation
percentage variation relative to the amount of estradiol at time 0, +2 h (seric estradiol; Subcutaneously, 1 mg/kg): -56 percentage variation
percentage variation relative to the amount of estradiol at time 0, +6 h (seric estradiol; Subcutaneously, 1 mg/kg): -60 percentage variation

C#CSCC[C@]12CCC(=O)C=C1CC[C@@H]1C2=CC[C@]2(C)C(=O)CC[C@@H]12 [Example 21, 10β-[2-(ethynylthio)-ethyl]-Δ^4,9(11) -estradiene-3,17-dione]
IC50 [1, 2]: 330 nM

C[C@]12CC=C3[C@@H](CCC4=CC(=O)CC[C@@]43CCSCF)[C@@H]1CCC2=O [Example 22]
IC50 [1, 2]: 500 nM

CSCC[C@]12CC[C@@H](O)C=C1CC[C@@H]1C2=CC[C@]2(C)[C@@H](O)CC[C@@H]12 [Example 26 (3 alpha OH)]
percentage variation relative to the amount of estradiol at time 0, +2 h (seric estradiol; [3]): -53 percentage variation
percentage variation relative to the amount of estradiol at time 0, +6 h (seric estradiol; [3]): -53 percentage variation

CSCC[C@]12CCC(=O)C=C1CC[C@@H]1C2=CC[C@]2(C)[C@@H](OC(=O)CCC(=O)O)CC[C@@H]12 [Example 27, Butanedioate of 10β-[2-(methylthio)-ethyl]-3-oxo-Δ^4,9(11) -estradien-17β-yl and of sodium]
percentage variation relative to the amount of estradiol at time 0, +2 h (seric estradiol; [3]): -58 percentage variation
percentage variation relative to the amount of estradiol at time 0, +6 h (seric estradiol; [3]): -45 percentage variation
percentage variation relative to the amount of estradiol at time 0, +2 h (seric estradiol; Subcutaneously, 1 mg/kg): -56 percentage variation
percentage variation relative to the amount of estradiol at time 0, +6 h (seric estradiol; Subcutaneously, 1 mg/kg): -20 percentage variation

CSCC[C@]12CCC(=O)CC1CC[C@@H]1C2=CC[C@]2(C)C(=O)CC[C@@H]12 (stereo partly drawn) [Example 31, 10β-[2-(methylthio)-ethyl]-Δ^9(11) -estren-3,17-dione]
IC50 [1, 2]: 5.5 nM
percentage variation relative to the amount of estradiol at time 0, +2 h (seric estradiol; [3]): -69 percentage variation
percentage variation relative to the amount of estradiol at time 0, +6 h (seric estradiol; [3]): -56 percentage variation
